From US11279944B2, “Of herbicide tolerance to 4-hydroxyphenylpyruvate dioxygenase (HPPD) inhibitors by down-regulation of HPPD expression in soybean” (BASF AGRICULTURAL SOLUTIONS SEED US LLC, priority 2017, dated 2022) come the findings set out here.

In series [1] the test system is soybean plants transformed by pCPE826 (Pf-Evo41+HPPD-Gm RNAi). As to the kind of experiment: Field trial of the T1 generation, herbicide tolerance. The note with it: in vivo. The source says:
(§1) The above result was confirmed in a field trial of the T1 generation.

For series [2], the system named is soybean plants transformed by pMLS0519 (Pf-KGEPHSVV). Described as above. Type of series: in vivo. The settings on record: Puerto Rico, among the most effective constructs.
Source text: as §1

On to `CS(=O)(=O)c1cc(C(F)(F)F)ccc1C(=O)c1cnoc1C1CC1` [Isoxaflutole, (5-cyclopropyl-4-isoxazolyl)[2-(methylsulfonyl)-4-(trifluoromethyl)phenyl]methanone], for which the “tolerance to HPPD inhibitor” value in series [1] and in series [2] was “good tolerance” each time.
